# Laboratory results from US20050165015A1, “Vanilloid receptor ligands and their use in treatments” (priority 2004, published 2005).
row,Compound,melting point [°C]
1,O=C(Nc1ccc(C(F)(F)F)cc1)c1ccc(-c2ncccc2Cl)cc1,208.6
2,"O=C(Nc1ccc(C(F)(F)F)cc1)c1ccc(-c2ncccc2C(F)(F)F)cc1 [Example 1, N-(4-Trifluoromethyl-phenyl)-4-(3-trifluoromethyl-pyridin-2-yl)-benzamide]",197.8 to 197.9
